Results as given in ChEMBL document CHEMBL1201862, “PubChem BioAssay data set” (2004).
Blank lines part the entries; values can stand above or below the compound they belong to. Active and inactive are the calls of the source.

Tests used:
[1] = molecular target: T1, Short transient receptor potential channel 4 (Mus musculus, UniProt Q9QUQ5); assay: mouse TRPC4 channel inhibitors, dose response, cell-based, HEK293 TRPC4/mu-opioid, Fluo-4 calcium (AID 434942); assay type: functional;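 further: potency of inhibitors blocking the TRPC4 calcium response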
T1 sequence (Q9QUQ5 whole entry): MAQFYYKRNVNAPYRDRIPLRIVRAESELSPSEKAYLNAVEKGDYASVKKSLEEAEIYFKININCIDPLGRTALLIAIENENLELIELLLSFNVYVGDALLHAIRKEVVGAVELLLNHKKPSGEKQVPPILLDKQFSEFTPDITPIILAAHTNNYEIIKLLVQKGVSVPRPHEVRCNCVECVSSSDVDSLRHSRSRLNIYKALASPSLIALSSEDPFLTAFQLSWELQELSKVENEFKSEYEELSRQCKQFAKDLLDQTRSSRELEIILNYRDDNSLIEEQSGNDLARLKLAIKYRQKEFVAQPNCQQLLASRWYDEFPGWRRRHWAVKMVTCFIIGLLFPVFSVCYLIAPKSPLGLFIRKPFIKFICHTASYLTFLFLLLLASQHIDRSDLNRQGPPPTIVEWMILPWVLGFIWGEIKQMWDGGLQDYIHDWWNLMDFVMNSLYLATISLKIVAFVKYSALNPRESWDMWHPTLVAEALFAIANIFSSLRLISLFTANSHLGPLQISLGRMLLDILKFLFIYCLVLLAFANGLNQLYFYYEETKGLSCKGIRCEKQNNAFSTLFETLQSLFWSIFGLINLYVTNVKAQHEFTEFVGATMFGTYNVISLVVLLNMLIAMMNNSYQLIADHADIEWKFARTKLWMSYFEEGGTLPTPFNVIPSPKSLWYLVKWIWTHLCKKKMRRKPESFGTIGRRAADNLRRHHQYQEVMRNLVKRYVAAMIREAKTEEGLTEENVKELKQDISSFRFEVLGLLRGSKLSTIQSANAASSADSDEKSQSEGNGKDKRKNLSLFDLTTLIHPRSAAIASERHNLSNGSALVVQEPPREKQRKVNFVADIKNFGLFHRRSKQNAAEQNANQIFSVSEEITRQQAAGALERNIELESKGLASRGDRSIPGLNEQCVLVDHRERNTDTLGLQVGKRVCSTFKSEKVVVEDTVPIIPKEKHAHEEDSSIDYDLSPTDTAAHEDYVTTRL

Prothrombin = Prothrombin (Bos taurus, UniProt P00735); assay: thrombin inhibition, dose response, biochemical, fluorescence polarization, uHTS hits (AID 602369); assay type: functional
[2] = molecular target: 26S proteasome non-ATPase regulatory subunit 14 (Homo sapiens, UniProt O00487); assay: inhibition of proteasome subunit RPN11 – biochemical, fluorescence polarization, uHTS hits, confirmation (AID 602368); assay type: functional
[3] = molecular target: 72 kDa type IV collagenase (Homo sapiens, UniProt P08253); assay: Dose Response validation of uHTS RPN11 inhibitor hits using a MMP-2 Fluorescence assay.; assay type: functional
[4] = molecular target: T2, Histone-lysine N-methyltransferase NSD2 (Homo sapiens, UniProt O96028); assay type: biochemical
T2 sequence (O96028 whole entry): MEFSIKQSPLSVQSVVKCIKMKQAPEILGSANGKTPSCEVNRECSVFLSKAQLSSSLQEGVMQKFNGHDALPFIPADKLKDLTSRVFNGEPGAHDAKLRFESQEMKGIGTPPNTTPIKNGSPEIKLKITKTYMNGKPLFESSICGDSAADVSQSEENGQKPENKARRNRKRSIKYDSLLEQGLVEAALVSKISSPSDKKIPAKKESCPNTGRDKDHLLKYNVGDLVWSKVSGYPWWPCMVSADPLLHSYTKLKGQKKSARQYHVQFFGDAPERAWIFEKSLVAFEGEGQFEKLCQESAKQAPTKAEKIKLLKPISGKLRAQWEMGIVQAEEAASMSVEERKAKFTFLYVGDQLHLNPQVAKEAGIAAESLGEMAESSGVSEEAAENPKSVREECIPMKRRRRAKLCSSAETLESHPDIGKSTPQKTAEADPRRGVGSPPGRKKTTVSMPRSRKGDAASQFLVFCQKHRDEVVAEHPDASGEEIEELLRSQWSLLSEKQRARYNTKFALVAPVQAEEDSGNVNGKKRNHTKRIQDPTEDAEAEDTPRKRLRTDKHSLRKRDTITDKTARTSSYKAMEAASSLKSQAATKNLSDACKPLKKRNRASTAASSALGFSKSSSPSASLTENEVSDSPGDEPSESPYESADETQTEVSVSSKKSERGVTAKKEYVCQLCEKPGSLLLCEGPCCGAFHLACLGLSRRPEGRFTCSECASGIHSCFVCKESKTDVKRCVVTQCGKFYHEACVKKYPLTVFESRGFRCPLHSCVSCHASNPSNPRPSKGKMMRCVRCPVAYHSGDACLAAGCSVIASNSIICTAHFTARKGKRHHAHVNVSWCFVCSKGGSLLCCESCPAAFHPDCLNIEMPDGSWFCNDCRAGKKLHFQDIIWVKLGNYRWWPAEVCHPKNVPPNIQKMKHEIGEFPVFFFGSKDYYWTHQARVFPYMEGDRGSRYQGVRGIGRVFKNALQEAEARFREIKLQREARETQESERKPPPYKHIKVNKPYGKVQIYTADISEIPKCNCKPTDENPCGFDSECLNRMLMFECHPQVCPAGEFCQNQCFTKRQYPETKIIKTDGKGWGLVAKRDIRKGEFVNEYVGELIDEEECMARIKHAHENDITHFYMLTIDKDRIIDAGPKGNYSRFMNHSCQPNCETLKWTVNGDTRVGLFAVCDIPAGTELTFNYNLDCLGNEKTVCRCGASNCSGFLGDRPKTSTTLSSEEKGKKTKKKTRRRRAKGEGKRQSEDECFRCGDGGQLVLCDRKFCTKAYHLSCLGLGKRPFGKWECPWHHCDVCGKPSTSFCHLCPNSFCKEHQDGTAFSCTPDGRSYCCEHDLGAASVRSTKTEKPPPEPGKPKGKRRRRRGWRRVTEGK

[5] = molecular target: G-protein coupled receptor 35 (Homo sapiens, UniProt Q9HC97); assay: GPR35 antagonists blocking zaprinast-driven arrestin recruitment, primary screen, imaging, U2OS, beta-arrestin-GFP, zaprinast agonist (AID 2058); assay type: functional;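 further: antagonist potency meaning inhibition of agonist-induced arrestin redistribution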
Bcl-2-like protein 10 = Bcl-2-like protein 10 (Homo sapiens, UniProt Q9HD36); assay: displacers of TR3 peptide from Bcl-B, primary screen, selectivity assay for Bfl-1 inhibitor project, biochemical, fluorescence polarization, FITC-TR3 peptide (AID 748);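 further: fluorescence polarization from a fluorescein-labelled TR3 peptide binding purified Bcl-B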
[6] = Cytotoxicity screening for potential Inhibitors of Bacterial Capsule Biogenesis. [Related pubchem assays (depositor defined):AID488970]; assay type: functional
Estrogen receptor beta = Estrogen receptor beta (Homo sapiens, UniProt Q92731); assay: ERβ–SRC-3 coactivator interaction inhibitors, confirmation, orthogonal assay, biochemical, ELISA, streptavidin-HRP readout (AID 1060)
[7] = molecular target: T3, Zinc finger protein mex-5 (Caenorhabditis elegans, UniProt Q9XUB2); assay: MEX-5/TCR-2 RNA interaction inhibitors, dose response, biochemical, C. elegans, fluorescence polarization (AID 1960)
T3 sequence (Q9XUB2 whole entry): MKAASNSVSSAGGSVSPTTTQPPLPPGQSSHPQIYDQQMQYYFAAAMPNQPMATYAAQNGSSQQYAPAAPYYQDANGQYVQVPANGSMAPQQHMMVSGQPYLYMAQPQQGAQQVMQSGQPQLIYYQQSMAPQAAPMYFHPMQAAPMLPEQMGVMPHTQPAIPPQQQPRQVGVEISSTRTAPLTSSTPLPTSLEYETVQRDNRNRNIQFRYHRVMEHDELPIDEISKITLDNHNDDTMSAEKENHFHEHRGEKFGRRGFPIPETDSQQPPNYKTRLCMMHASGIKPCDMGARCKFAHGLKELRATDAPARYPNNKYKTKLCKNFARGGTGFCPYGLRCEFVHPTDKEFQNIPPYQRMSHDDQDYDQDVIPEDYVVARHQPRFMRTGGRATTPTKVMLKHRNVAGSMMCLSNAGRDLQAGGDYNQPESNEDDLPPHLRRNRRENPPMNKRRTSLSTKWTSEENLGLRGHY

[8] = molecular target: T4, RNA-binding protein pos-1 (Caenorhabditis elegans, UniProt G5EF15); assay: inhibitors of POS-1/mex-3 RNA binding, dose response, biochemical, fluorescence polarization (AID 1964);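 further: purified POS-1 fused to maltose binding protein made in E. coli; potency of compounds blocking POS-1 binding to fluorescent RNA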
T4 sequence (G5EF15 whole entry): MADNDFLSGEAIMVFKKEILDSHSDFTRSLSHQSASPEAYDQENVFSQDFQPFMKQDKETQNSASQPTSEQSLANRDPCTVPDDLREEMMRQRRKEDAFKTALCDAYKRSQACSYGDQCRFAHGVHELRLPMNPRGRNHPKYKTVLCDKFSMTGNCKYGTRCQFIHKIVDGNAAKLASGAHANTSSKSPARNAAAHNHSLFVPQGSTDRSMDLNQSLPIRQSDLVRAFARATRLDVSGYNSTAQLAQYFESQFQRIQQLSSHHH

Estrogen receptor = molecular target: T5, Estrogen receptor (Homo sapiens, UniProt P03372);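 further: potency for inhibiting coactivator peptide recruitment to the receptor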
T5 sequence (P03372 whole entry): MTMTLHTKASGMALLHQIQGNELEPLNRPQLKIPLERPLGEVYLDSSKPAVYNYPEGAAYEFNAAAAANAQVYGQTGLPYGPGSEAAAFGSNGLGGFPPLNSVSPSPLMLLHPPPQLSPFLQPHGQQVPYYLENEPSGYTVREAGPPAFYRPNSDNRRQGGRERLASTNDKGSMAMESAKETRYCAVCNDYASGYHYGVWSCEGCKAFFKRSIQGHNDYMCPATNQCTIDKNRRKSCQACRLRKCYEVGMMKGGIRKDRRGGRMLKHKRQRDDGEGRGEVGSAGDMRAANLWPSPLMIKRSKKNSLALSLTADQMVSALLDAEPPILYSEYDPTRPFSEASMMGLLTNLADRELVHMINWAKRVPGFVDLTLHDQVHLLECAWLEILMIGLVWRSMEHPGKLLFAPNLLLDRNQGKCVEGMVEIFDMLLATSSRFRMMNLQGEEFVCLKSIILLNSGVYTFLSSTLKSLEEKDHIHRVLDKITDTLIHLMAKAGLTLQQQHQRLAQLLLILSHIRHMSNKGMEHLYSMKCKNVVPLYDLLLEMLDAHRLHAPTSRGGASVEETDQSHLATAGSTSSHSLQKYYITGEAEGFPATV

[9] = molecular target: Phosphoethanolamine/phosphocholine phosphatase (Homo sapiens, UniProt Q8TCT1); assay: SAR assay for compounds that inhibit PHOSPHO1. [Related pubchem assays (depositor defined):AID1545, AID1565, AID1574]
[10] = molecular target: T6, Neuropeptides B/W receptor type 1 (Homo sapiens, UniProt P48145); assay: GPR7 antagonist potency, late-stage follow-up, cell-based, fluorescence, dose response (AID 463251); assay type: functional
T6 sequence (P48145 whole entry): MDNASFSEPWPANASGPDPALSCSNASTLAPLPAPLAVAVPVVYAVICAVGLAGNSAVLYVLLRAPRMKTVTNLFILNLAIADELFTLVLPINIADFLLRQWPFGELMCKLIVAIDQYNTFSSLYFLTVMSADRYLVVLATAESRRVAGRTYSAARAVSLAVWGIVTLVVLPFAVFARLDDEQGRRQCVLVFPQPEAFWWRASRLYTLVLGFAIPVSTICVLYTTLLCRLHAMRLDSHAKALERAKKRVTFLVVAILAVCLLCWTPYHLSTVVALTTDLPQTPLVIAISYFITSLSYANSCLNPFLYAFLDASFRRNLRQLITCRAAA

[11] = molecular target: Melanin-concentrating hormone receptor 1 (Homo sapiens, UniProt Q99705); assay: Late-stage fluorescence-based counterscreen for antagonists of the G-protein coupled receptor 7 (GPR7): cell-based dose response assay to identify antagonists of the melanin-concentrating hormone receptor 1 (MCHR1). [Related pubchem assays (depositor defined):AID1861, AID1880, AID1952, AID2148, AID2251, AID2257, AID485339]; assay type: functional;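 further: stimulated with 30 nM MCH peptide agonist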
Sequence of Melanin-concentrating hormone receptor 1 (Q99705 whole entry): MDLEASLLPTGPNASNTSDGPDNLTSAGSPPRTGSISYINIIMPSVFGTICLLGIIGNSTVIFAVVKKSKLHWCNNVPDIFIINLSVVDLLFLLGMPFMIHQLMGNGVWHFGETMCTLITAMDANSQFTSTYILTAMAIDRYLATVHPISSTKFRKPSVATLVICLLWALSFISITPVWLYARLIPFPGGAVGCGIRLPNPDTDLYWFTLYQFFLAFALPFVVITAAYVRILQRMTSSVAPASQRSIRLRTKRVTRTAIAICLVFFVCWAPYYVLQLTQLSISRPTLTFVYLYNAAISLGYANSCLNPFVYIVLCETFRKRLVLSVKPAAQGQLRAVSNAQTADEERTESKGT

Sequence of 26S proteasome non-ATPase regulatory subunit 14 (O00487 whole entry): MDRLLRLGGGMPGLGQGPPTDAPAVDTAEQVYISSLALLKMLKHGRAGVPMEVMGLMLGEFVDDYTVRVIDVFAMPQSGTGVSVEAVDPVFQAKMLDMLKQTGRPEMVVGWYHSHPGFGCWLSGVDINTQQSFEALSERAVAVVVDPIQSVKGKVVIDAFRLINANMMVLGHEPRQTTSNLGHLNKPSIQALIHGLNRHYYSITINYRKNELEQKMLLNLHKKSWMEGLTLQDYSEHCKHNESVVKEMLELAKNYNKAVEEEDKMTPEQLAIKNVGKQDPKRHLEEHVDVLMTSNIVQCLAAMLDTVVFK
Sequence of G-protein coupled receptor 35 (Q9HC97 whole entry): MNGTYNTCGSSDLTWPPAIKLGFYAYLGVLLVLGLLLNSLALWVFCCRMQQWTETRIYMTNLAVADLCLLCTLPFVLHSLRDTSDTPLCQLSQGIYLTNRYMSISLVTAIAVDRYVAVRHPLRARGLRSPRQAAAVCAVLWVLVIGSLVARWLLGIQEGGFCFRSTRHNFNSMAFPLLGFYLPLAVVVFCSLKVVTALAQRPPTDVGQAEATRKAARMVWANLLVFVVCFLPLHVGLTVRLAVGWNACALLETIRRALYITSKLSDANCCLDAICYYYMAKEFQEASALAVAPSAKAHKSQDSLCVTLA
Sequence of 72 kDa type IV collagenase (P08253 whole entry): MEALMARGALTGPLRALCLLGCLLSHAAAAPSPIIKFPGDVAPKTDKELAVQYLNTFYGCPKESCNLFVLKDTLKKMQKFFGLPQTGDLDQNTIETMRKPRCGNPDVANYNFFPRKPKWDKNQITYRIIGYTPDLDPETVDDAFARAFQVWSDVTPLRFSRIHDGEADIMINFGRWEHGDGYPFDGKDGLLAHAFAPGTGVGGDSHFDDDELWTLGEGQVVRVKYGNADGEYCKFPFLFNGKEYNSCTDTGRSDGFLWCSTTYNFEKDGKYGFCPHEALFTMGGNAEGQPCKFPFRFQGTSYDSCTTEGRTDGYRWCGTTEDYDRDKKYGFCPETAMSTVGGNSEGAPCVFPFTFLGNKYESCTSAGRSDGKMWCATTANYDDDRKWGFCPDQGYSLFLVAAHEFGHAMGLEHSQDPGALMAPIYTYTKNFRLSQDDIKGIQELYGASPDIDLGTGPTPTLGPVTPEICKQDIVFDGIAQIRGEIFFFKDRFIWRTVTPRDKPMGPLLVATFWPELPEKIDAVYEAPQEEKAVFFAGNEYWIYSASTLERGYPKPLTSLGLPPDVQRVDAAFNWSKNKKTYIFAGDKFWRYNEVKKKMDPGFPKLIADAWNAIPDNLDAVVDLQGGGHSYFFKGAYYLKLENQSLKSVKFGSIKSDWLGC
Sequence of Bcl-2-like protein 10 (Q9HD36 whole entry): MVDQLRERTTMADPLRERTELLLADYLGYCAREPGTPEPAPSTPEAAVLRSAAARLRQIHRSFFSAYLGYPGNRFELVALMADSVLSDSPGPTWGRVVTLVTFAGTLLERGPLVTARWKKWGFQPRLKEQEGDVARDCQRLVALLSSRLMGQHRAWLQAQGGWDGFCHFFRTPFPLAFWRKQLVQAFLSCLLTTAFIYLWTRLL
Sequence of Phosphoethanolamine/phosphocholine phosphatase (Q8TCT1 whole entry): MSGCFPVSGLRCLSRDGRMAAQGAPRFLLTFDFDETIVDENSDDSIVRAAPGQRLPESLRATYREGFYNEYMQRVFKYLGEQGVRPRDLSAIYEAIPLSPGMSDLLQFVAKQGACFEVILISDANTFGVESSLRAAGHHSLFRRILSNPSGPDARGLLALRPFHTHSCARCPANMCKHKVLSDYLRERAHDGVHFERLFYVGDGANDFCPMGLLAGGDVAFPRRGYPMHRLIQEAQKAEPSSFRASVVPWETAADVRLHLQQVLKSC
Sequence of Estrogen receptor beta (Q92731 whole entry): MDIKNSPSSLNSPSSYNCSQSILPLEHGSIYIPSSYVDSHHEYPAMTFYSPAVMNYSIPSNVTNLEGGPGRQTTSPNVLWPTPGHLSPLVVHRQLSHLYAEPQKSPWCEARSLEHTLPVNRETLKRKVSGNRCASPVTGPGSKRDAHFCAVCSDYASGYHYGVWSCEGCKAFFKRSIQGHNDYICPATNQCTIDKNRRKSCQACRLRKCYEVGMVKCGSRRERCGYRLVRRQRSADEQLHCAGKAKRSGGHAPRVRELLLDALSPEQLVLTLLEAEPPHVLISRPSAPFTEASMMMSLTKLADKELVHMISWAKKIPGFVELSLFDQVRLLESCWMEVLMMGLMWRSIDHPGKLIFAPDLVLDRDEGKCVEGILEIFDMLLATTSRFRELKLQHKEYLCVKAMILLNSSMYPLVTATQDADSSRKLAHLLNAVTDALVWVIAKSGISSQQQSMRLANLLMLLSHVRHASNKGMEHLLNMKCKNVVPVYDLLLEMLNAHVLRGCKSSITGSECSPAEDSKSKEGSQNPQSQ

EC50 [1]: 9.44 µM (active)
SMILES: CCOC(=O)C1(Cc2cccc(OC)c2)CCN(Cc2cccc(O)c2)CC1

IC50 (Prothrombin): 39.8 µM (active)
IC50 [2]: 23.1 µM (active)
IC50 [3]: 97.4 µM (active)
AC50 [4]: 18.6 µM (active)
IC50 [5]: < 0.5 µM (active)
SMILES: O=C(/C=C/c1ccco1)Nc1cccc(C(=O)Nc2ccccc2C(=O)O)c1

IC50 (Bcl-2-like protein 10): 69.1 µM (inactive)
SMILES: COc1ccccc1NCCC(=O)OCC(=O)NCc1ccco1

IC50 (Estrogen receptor beta): > 50 µM (not active)
EC50 [7]: 6.85 µM (active)
AC50 [4]: 16.2 µM (active)
EC50 [8]: 4.36 µM (active)
IC50 (Estrogen receptor): 21 µM (active)
SMILES: CCC1=NN2C(=N)/C(=C\c3ccc(SCc4ccco4)o3)C(=O)N=C2S1
CC50 [6]: > 100 µM (active)

IC50 [9]: 2.59 µM (inactive)
SMILES: c1ccc(CNc2nc(-c3ccccc3)[n+](-c3ccccc3)s2)cc1

IC50 [10]: 2.8 µM (active)
IC50 [11]: 11.1 µM (inactive)
SMILES: O=c1c(Oc2ccc(O)cc2)c(Cl)cnn1-c1ccccc1
